According to paper doi:10.1101/2025.02.11.637513v1 (bioRxiv, 2025):
Non-standard residues stand in square brackets, D forms with d. No end group written: not given here. Phg = N[C@H](C(=O)O)c1ccccc1; Tle = CC(C)(C)[C@H](N)C(=O)O

Key:
Test in all cases: tetrapeptide-ACC substrate cleavage kinetics
Type in all cases: biochemical
human caspase-1 = target: T1, human caspase-1 (Homo sapiens, UniProt P29466); conditions: Ac-P4-P3-P2-Asp-ACC substrate, 0.05-500 μM, 2-15 nM enzyme, 37°C, triplicate
T1 sequence (P29466 120-297 limits assumed): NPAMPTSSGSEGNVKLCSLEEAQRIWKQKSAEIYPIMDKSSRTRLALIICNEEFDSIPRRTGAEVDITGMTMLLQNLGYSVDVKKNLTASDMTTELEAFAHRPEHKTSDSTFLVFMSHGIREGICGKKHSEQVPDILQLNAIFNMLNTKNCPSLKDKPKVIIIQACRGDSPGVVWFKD
T1 sequence (P29466 317-404 limits assumed): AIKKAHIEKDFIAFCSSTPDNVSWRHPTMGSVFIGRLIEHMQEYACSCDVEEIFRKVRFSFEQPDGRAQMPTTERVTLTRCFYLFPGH

human caspase-4 = target: T2, human caspase-4 (Homo sapiens, UniProt P49662); conditions: Ac-P4-P3-P2-Asp-ACC substrate, 0.05-500 μM, 35-200 nM enzyme, 37°C, triplicate
T2 sequence (P49662 81-270 limits assumed): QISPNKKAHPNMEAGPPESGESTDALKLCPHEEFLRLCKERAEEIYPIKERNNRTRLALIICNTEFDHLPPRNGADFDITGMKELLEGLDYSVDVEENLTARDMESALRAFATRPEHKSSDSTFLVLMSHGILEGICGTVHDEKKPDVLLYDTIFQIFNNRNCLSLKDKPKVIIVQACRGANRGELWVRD
T2 sequence (P49662 290-377 limits assumed): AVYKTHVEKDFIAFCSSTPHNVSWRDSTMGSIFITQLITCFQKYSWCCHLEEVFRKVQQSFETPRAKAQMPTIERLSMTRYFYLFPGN

human caspase-5 = target: T3, human caspase-5 (Homo sapiens, UniProt P51878); conditions: Ac-P4-P3-P2-Asp-ACC substrate, 0.05-500 μM, 20-250 nM enzyme, 37°C, triplicate
T3 sequence (P51878 137-327 limits assumed): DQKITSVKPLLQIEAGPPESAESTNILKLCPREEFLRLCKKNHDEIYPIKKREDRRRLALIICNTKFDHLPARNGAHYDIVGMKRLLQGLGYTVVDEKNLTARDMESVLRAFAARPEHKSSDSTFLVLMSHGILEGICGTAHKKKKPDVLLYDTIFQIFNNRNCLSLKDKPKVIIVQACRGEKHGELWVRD
T3 sequence (P51878 347-434 limits assumed): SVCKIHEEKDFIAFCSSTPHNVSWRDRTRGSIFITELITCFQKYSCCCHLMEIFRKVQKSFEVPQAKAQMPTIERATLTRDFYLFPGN

human caspase-3 = target: T4, human caspase-3 (Homo sapiens, UniProt P42574); conditions: Ac-P4-P3-P2-Asp-ACC substrate, 0.05-500 μM, 3-35 nM enzyme, 37°C, triplicate
T4 sequence (P42574 29-175 limits assumed): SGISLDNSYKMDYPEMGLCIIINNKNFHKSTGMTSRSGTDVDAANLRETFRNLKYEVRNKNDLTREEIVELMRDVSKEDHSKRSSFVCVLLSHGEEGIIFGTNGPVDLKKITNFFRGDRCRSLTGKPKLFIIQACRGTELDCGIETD
T4 sequence (P42574 176-277 limits assumed): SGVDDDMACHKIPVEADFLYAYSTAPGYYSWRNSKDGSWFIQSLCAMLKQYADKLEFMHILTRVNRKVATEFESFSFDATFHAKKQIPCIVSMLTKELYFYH

human caspase-7 = target: T5, human caspase-7 (Homo sapiens, UniProt P55210); conditions: Ac-P4-P3-P2-Asp-ACC substrate, 0.05-500 μM, 40-400 nM enzyme, 37°C, triplicate
T5 sequence (P55210 24-198 limits assumed): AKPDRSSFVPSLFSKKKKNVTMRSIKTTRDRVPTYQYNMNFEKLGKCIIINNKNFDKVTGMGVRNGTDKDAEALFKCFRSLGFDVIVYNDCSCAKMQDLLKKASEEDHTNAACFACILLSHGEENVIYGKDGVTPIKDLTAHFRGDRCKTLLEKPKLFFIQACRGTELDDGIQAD
T5 sequence (P55210 207-303 limits assumed): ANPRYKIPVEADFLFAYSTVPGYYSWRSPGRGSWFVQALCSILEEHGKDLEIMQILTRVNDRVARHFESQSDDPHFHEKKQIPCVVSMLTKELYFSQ

human caspase-8 = human caspase-8 (Homo sapiens, UniProt Q14790); conditions: Ac-P4-P3-P2-Asp-ACC substrate, 0.05-500 μM, 6-42 nM enzyme, 37°C, triplicate
human caspase-9 = target: T6, human caspase-9 (Homo sapiens, UniProt P55211); conditions: Ac-P4-P3-P2-Asp-ACC substrate, 0.05-500 μM, 20-150 nM enzyme, 37°C, triplicate
T6 sequence (P55211 1-315 limits assumed): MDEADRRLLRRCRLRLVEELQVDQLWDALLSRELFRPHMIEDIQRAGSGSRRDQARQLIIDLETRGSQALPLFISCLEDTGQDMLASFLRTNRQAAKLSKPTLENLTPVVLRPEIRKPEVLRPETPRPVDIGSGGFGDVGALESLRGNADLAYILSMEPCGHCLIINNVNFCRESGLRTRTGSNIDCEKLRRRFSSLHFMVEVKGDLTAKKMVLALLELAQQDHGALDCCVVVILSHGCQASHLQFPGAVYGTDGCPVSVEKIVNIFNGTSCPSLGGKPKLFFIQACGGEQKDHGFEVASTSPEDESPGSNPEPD
T6 sequence (P55211 331-416 limits assumed): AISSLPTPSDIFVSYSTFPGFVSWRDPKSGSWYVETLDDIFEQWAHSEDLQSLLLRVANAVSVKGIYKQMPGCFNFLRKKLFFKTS

Chain of human caspase-8 (Q14790 217-374 limits assumed): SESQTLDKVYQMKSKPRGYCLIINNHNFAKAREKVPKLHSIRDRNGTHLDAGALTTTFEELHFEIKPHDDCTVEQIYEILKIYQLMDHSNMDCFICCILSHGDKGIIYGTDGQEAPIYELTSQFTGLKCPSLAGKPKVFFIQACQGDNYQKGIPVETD
Chain of human caspase-8 (Q14790 385-479 limits assumed): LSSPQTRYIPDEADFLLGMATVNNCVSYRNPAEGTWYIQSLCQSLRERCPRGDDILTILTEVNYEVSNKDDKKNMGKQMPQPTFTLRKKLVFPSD

Substance | kcat/KM caspase-1 (human caspase-1) | kcat/KM caspase-4 (human caspase-4) | kcat/KM caspase-5 (human caspase-5) | kcat/KM caspase-3 (human caspase-3) | kcat/KM caspase-7 (human caspase-7) | kcat/KM caspase-8 (human caspase-8) | kcat/KM caspase-9 (human caspase-9)
[Tle][Phg]HD | 4 300 M^-1s^-1 | 320 M⁻¹ s⁻¹ | 490 M⁻¹ s⁻¹ | 6 710 M^-1s^-1 | 40 M⁻¹ s⁻¹ | 2 030 M^-1s^-1 | 9 870 M^-1s^-1
Tyr-Lys-Met-Asp | 9 700 M^-1s^-1 | 180 M⁻¹ s⁻¹ | < 10 M⁻¹ s⁻¹ | 50 M⁻¹ s⁻¹ | 10 M⁻¹ s⁻¹ | 210 M⁻¹ s⁻¹ | 50 M⁻¹ s⁻¹
Tle-Bpa-His(Bzl)-Asp | 25 300 M^-1s^-1 | 4 390 M^-1s^-1 | 2 650 M^-1s^-1 | 23 360 M^-1s^-1 | 100 M⁻¹ s⁻¹ | 6 400 M^-1s^-1 | 4 210 M^-1s^-1
Pro-Tyr-His-Asp | 10 900 M^-1s^-1 | 330 M⁻¹ s⁻¹ | 1 110 M^-1s^-1 | 2 110 M^-1s^-1 | 90 M⁻¹ s⁻¹ | 4 490 M^-1s^-1 | 11 080 M^-1s^-1
Trp-Gln-Val-Asp | 124 800 M^-1s^-1 | 4 300 M^-1s^-1 | 5 100 M^-1s^-1 | 12 140 M^-1s^-1 | 100 M⁻¹ s⁻¹ | 3 870 M^-1s^-1 | 220 M⁻¹ s⁻¹
Tyr-Lys-Ala-Asp | 10 800 M^-1s^-1 | 140 M⁻¹ s⁻¹ | 180 M⁻¹ s⁻¹ | < 10 M⁻¹ s⁻¹ | < 10 M⁻¹ s⁻¹ | 210 M⁻¹ s⁻¹ | 50 M⁻¹ s⁻¹
Leu-Glu-Ser-Asp | 20 000 M^-1s^-1 | 3 390 M^-1s^-1 | 13500 M⁻¹ s⁻¹ | 950 M⁻¹ s⁻¹ | 20 M⁻¹ s⁻¹ | 19 200 M^-1s^-1 | 3550 M⁻¹ s⁻¹
Tyr-Glu-Lys-Asp | 39 500 M^-1s^-1 | 750 M⁻¹ s⁻¹ | 3 430 M^-1s^-1 | 580 M⁻¹ s⁻¹ | 80 M⁻¹ s⁻¹ | 2 720 M^-1s^-1 | 130 M⁻¹ s⁻¹
Val-Gly-His-Asp | 2 000 M^-1s^-1 | 480 M⁻¹ s⁻¹ | 390 M⁻¹ s⁻¹ | 7 360 M^-1s^-1 | 90 M⁻¹ s⁻¹ | 1 110 M^-1s^-1 | 3 800 M^-1s^-1
